Assay results taken from US20260215418A1, “HYDROCARBON ALCOHOLS AND THEIR DERIVATIVES AS SYNERGISTS IN PESTICIDE ACTIVITY” (priority 2022, published 2026).

Tests used:
Format in all cases: in vivo
Blattella germanica = test: Contact test on non-porous tile, Blattella germanica; details: 24 h; for Mortality %/time (h) (application): Table 37, Blattella germanica, concentrations in mg/ml in label
Experimental: 1 ml of Composition 36 was distributed on the tile. […] 1 ml of Composition 37 was distributed on a tile.

Blatta lateralis = test: Contact test on non-porous tile, Blatta lateralis; details: Blatta lateralis
Experimental: 1 ml of Composition 24 was distributed on the tile. […] 1 ml of Composition 20c was distributed on a tile. […] 1 ml of Composition 20d was distributed on a tile.
1 ml of Composition 24 was distributed on the tile. […] 1 ml of Composition 28 was distributed on a tile. […] Each experiment (A-B) was conducted in duplicate.
1 ml of Composition 24 was distributed on the tile. […] 1 ml of Composition 21 was distributed on a tile.
1 ml of Composition 4b was distributed on the tile. […] 1 ml of Composition 31c was distributed on a tile. […] 1 ml of Composition 31d was distributed on a tile. […] 1 ml of Composition 31d was distributed on a tile.
1 ml of Composition 24 was distributed on the tile. […] 1 ml of Composition 35 was distributed on a tile. […] 1 ml of Composition 40b was distributed on a tile. […] 1 ml of Composition 42 was distributed on a tile.

Musca domestica L. = test: Contact test on non-porous tile, Musca domestica
Experimental: 1 ml of Composition 1 was applied to the tile. […] 1 ml of Composition 8a was distributed on the tile. […] 1 ml of Composition 8a was distributed on a tile. […] At the end of the 30 minutes, the flies were transferred to an untreated area.
1 ml of Composition 3 was applied to the tile. […] 1 ml of Composition 8c was distributed on the tile. […] 1 ml of Composition 8c was distributed on a tile. […] At the end of the 30 minutes, the flies were transferred to an untreated area.
1 ml of Composition 9a was distributed on the tile. […] 1 ml of Composition 9a was distributed on a tile. […] At the end of the 30 minutes, the flies were transferred to an untreated area. […] 1 ml of Composition 10a was distributed on the tile. […] 1 ml of Composition 10a was distributed on a tile. […] At the end of the 30 minutes, the flies were transferred to an untreated area. […] 1 ml of Composition 8c was distributed on the tile. […] 1 ml of Composition 8c was distributed on a tile. […] At the end of the 30 minutes, the flies were transferred to an untreated area.
1 ml of Composition 5a, was distributed on the tile. […] 1 ml of Composition 6a was distributed on the tile. […] 1 ml of Composition 7a was distributed on the tile.
1 ml of Composition 3 was distributed on the tile. […] 1 ml of Composition 9a was distributed on the tile. […] 1 ml of Composition 11a was distributed on a tile. […] 1 ml of Composition 12a was distributed on a tile.
1 ml of Composition 3 was distributed on the tile. […] 1 ml of Composition 17a was distributed on a tile. […] 1 ml of Composition 18a was distributed on a tile. […] Each experiment (A-C) was conducted in duplicate.
1 ml of Composition 23a was distributed on the tile. […] 1 ml of Composition 20a was distributed on a tile. […] Each experiment (A-B) was conducted in duplicate.
1 ml of Composition 3 was distributed on the tile. […] 1 ml of Composition 25a was distributed on a tile. […] Each experiment (A-B) was conducted in duplicate.
1 ml of Composition 23a was distributed on the tile. […] 1 ml of Composition 27a was distributed on a tile. […] Each experiment (A-B) was conducted in duplicate.
1 ml of Composition 26a was distributed on a tile. […] 1 ml of Composition 26b was distributed on a tile. […] 1 ml of Composition 26c was distributed on a tile.
1 ml of Composition 22a was distributed on a tile. […] 1 ml of Composition 22b was distributed on a tile. […] 1 ml of Composition 22c was distributed on a tile.
1 ml of Composition 23a was distributed on the tile. […] 1 ml of Composition 44a was distributed on a tile.
1 ml of Composition 33 was distributed on a tile. […] 1 ml of Composition 33 was distributed on a tile. […] At the end of the 30 minutes, the flies were transferred to an untreated area.
1 ml of Composition 1 was distributed on the tile. […] 1 ml of Composition 34 was distributed on a tile. […] 1 ml of Composition 34 was distributed on a tile. […] At the end of the 30 minutes, the flies were transferred to an untreated area.
1 ml of Composition 3 was distributed on the tile. […] 1 ml of Composition 31a was distributed on a tile. […] 1 ml of Composition 31b was distributed on a tile. […] 1 ml of Composition 31b was distributed on a tile. […] At the end of the 30 minutes, the flies were transferred to an untreated area. […] 1 ml of Composition 38a was distributed on a tile. […] 1 ml of Composition 38a was distributed on a tile. […] At the end of the 30 minutes, the flies were transferred to an untreated area.
G) According to the invention. 1 ml of Composition 40a was distributed on a tile. […] Subsequently, after waiting for the solvent to evaporate, 10 flies were placed on top of the treated til

Compound: Oleic alcohol [Composition 37]
- Mortality %/time (h) (application) (Blattella germanica): 7/24 ^ %

Compound: CCCCC(O)CO (centres unmarked) [Composition 31c, 1,2-hexandiol]
- Mortality %/time (h) (application) (Blatta lateralis; Table 37, 48 h, application ^, concentrations in mg/ml in label, listed as 1,2-hexandiol (0.05)): 14/48 ^ %

Compound: O=[N+]([O-])NC1=NCCN1Cc1ccc(Cl)nc1 [Composition 36, Imidacloprid, reference compound]
- Mortality % (Blattella germanica; Example 34, 25° C, insects on treated tile): 27%
- Mortality %/time (h) (application) (Blattella germanica): 27/24 ^ %

Compound: CCCCC(O)CO (centres unmarked) [1,2-hexandiol]
- synergizing effect on Azamethiphos (Musca domestica L.; Musca domestica L., synergist applied with Azamethiphos): excellent synergizing effect
- synergizing effect on Cypermethrin (Musca domestica L.; Musca domestica L., synergist applied with Cypermethrin): excellent synergizing effect
- synergizing effect on Pyrethrins (Musca domestica L.; Musca domestica L., synergist applied with Pyrethrins): good synergizing effect
- synergizing effect on Spinosad (Musca domestica L.; Musca domestica L., synergist applied with Spinosad): good synergizing effect
- mortality at 390 µg/mL (Musca domestica L.; Musca domestica, single substance alone, 0.39 mg/ml, 48 h, read-out: Mortality %/time (h)): 4%
- mortality at 680 µg/mL (Musca domestica L.; Musca domestica, single substance alone, 0.68 mg/ml, 48 h, read-out: Mortality %/time (h)): 7%
- mortality at 1050 µg/mL (Musca domestica L.; Musca domestica, single substance alone, 1.05 mg/ml, 48 h, read-out: Mortality %/time (h)): 10%
- mortality at 2340 µg/mL (Musca domestica L.; Musca domestica, single substance alone, 2.34 mg/ml, 48 h, read-out: Mortality %/time (h)): 23%
- synergizing effect on Cypermethrin (Blatta lateralis; synergist applied with Cypermethrin): good synergizing effect
- synergizing effect on Imidacloprid (Blatta lateralis; synergist applied with Imidacloprid): excellent synergizing effect
